# Read-outs that look alike come from different tables or passages of the source.
# Assays:
# [1] = Polymer screening by DSC (miscibility of Compound 1 in polymer); assay type: physicochemical
# Experimental: Differential Scanning calorimetry (DSC) and Oil bath methods were applied to study solid dispersions comprising Compound 1. DSC is applied for the prediction of miscibility and solubility of Compound 1 in polymer.
# Pure crystalline drug Compound 1 was physically mixed with each pure polymer. The equilibrium solution temperature (Tend) and Enthalpy (H) of Compound 1 in each 20% Compound 1 loaded physical mixture (PM) were measured for polymer screening by DSC (Discovery™ DSC, TA Instruments) with following steps;
# −20° C. to over MP (melting point) of Compound 1 (206° C.) @1° C./min
# From the endothermic peak of DSC, H and Tend were analyzed, and the change ratio A E between pure Compound 1 and PM was defined as miscibility parameters (Eq. 1). […] Therefore, the lower A E means the higher miscibility.
# [2] = Solubility (24 h, 37° C.) in JP1 and JP2; assay type: physicochemical; conditions: thermodynamic from solid
# [3] = 20% Compound 1 loaded physical mixture with polymer, pure Compound 1 as reference
structure (smiles),measurement,setting,value
"C[C@@H](NC(=O)c1ncnc(N)c1Cl)c1ncc(C(=O)Nc2cc(C(F)(F)F)c(Cl)cn2)s1 [Compound 1, (R)-2-(1-(6-amino-5-chloropyrimidine-4-carboxamido)ethyl)-N-(5-chloro-4-(trifluoromethyl)pyridin-2-yl)thiazole-5-carboxamide]",DSC H (enthalpy),[1]; [3],102.52 J/g
same,DSC Tend (equilibrium solution temperature),[1]; [3],209.958 °C
same,DSC ΔE (miscibility parameter),"[1]; 20% Compound 1 loaded physical mixture, lower ΔE means higher miscibility",2.00
same,solubility at 24 h,"[2]; aqueous buffer, JP2 (pH 6.8), Table 2, read-out: Solubility JP2",1.1 µg/mL
same,solubility at 24 h,"[2]; simulated gastric fluid, JP1 (pH 1.2), Table 2, read-out: Solubility JP1",3.4 µg/mL

# Source: patent US20220401369A1, “SOLID DISPERSION OF PAN-RAF KINASE INHIBITOR” (DAY ONE BIOPHARMACEUTICALS, INC., priority 2019, published 2022)
